This note sets out measurements from patent US20070275968A1, “Substituted Biphenyl Derivative” (priority 2004, published 2007).

One series concerns NRK-49F cells. The experiment in a line: Collagen synthesis inhibition test. Type of series: cell-based. Particulars: Rattus norvegicus, 25 ng/mL TGF-β added, cultured about 44 hr, 3H-labeled proline taken into collagen, no TGF-β = 100% inhibition, no test compound = 0% inhibition, read-out: Collagen synthesis inhibiting activity IC50. The procedure: Collagen Synthesis Inhibition Test
Collagen synthesis inhibiting activity was evaluated by the following assay.
NRK-49F cells (Dainippon Pharmaceutical) are seeded into a 96-well plate. After becoming confluent, the medium is changed to a serum-free Dulbecco's modified MEM medium (Invitrogen) containing 5 μg/mL insulin, 5 μg/mL transferin, and 5 ng/mL selenious acid. One day later, the medium is changed to a serum-free Dulbecco's modified MEM medium (80 μl) containing 10 ng/mL IGF-II (Sigma) and 50 μg/mL L-ascorbic acid (Sigma), and a ten times concentration of a test compound (10 μl) is added thereto. Thirty minutes later, 25 ng/mL TGF-β (R&D System: 10 μL) is added to the medium, and the cells are cultured for about 44 hr. Twenty four hours before the termination of the culturing, ^3H-labeled proline (Amersham: 1 μCi) is added so as to be taken into collagen in the cells. When the culturing is terminated, 30% trichloroacetic acid (50 μL) is added to the medium. After leaving for 20 min, proteins are precipitated by centrifugation at 3000 rpm for 10 min. The supernatant is removed, and the residue is twice washed with 200 μL of a washing solution (ethanol:ether=3:1). The precipitate is air-dried, and the washing solution is sufficiently removed. After addition of 60 μL of a collagenase solution (2 mg/mL collagenase VII (Sigma), 50 mM Tris-HCl (pH 7.4), 5 mM CaCl2), the resulting mixture is treated at 37° C. for 2 hr to decompose collagen. Then, 90 μL of 15% trichloroacetic acid and 5% tannic acid are added thereto. The resulting mixture is left for 20 min and then centrifuged at 3000 rpm for 10 min. The supernatant (50 μL) is transferred to LumaPlate (PerkinElmer Lifescience) and is air-dried. Then, the amount of ^3H is measured by a Top Count.

`Cc1cccc(-c2n[nH]cc2-c2ccc(F)c(-c3c[nH]c(CCO)n3)c2)n1` [Example 209, 2-(4-{2-Fluoro-5-[3-(6-methylpyridin-2-yl)-1H-pyrazol-4-yl]phenyl}-1H-imidazol-2-yl)ethanol] registered a melting point of 219 to 220 °C. In the series on NRK-49F cells, the IC50 is 50 nM.

As to `Cc1cccc(-c2n[nH]cc2-c2ccc(F)c(-c3cn4c(n3)S(=O)(=O)CC4)c2)n1` [Example 212, 6-{2-Fluoro-5-[3-(6-methylpyridin-2-yl)-1H-pyrazol-4-yl]phenyl}-2,3-dihydroimidazo[2,1-b][1,3]thiazole 1,1-dioxide], the melting point lay within 134 to 138 °C. Moreover, the IC50 in the series with NRK-49F cells is 110 nM.

With `Cc1cccc(-c2nc(N)sc2-c2ccc(F)c(-c3cnn(C)c3)c2)n1` [Example 217, 5-[4-Fluoro-3-(1-methyl-1H-pyrazol-4-yl)phenyl]-4-(6-methylpyridin-2-yl)-1,3-thiazol-2-amine], the melting point is 153 to 155 °C. For the same molecule, in the series with NRK-49F cells, the IC50 was 10 nM.

The melting point is the temperature of the solid-liquid transition. Broadly, the IC50 is the concentration at which inhibition is half-maximal.
